Common to all, as to format: biochemical
Experiment [1] relates to mouse LYPLA1/2 (quantified together). Kind of experiment: IC50 by gel-based competitive ABPP in vitro, mouse brain membrane proteome. As for the experimental part:
Assay Overview: The purpose of this assay was to determine IC50 values of powder samples of test compounds for enzyme of interest activity, and anti-targets in a complex proteomic lysate using a gel-based competitive ABPP assay. In this assay, a complex proteome was incubated with test compound followed by reaction with FP-Rh and SDS-PAGE analysis as described above.
Protocol Summary: Soluble HeLa cell proteome (50 μL reaction volume, 1 mg/mL in DPBS) or mouse brain membrane proteome (50 μL reaction volume, 1 mg/mL in DPBS) was treated with varying concentrations of test compound (1 μL of a 50× stock in DMSO) for 30 minutes at 37° C. FP-Rh (1 μL of 50× stock in DMSO) was added to a final concentration of 2 μM. The reaction was incubated for 30 minutes at 25° C., quenched with 16 μL 4×SDS-PAGE loading buffer (reducing), separated by SDS-PAGE and visualized by in-gel fluorescent scanning. The percentage activity remaining was determined by measuring the integrated optical density of the enzymes of interest, and anti-target bands relative to a DMSO-only (no compound) control. IC50 values were determined from dose-response curves from three replicates at each inhibitor concentration: 1, 10, 100, 1000, 10000 nM and 0.01, 0.1, 1, 10, 100, 1000, 10000, 50000, and 100000 nM.

Experiment [2] concerns the target T1, ABHD3 (Mus musculus, UniProt Q91ZH7).
T1 construct: from tissue; host or cells: mouse brain, membrane fraction
T1 sequence (Q91ZH7 1-411): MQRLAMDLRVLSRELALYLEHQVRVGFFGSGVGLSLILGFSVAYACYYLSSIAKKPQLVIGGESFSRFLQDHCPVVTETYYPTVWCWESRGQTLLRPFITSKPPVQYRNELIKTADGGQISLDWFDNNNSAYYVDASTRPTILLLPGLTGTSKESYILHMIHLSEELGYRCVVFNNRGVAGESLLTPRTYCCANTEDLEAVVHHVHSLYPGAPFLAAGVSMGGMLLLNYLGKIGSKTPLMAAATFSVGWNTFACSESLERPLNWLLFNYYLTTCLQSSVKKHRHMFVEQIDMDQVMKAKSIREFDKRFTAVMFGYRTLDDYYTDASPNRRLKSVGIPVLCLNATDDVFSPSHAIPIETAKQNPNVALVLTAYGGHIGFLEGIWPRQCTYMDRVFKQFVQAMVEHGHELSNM
The experiment is described as follows: Gel-based competitive ABPP in vitro, mouse brain membrane proteome. The following applies: mouse brain (mem) proteome. As for the experimental part:
(§1) Assay Overview: The purpose of this assay was to determine whether test compounds can inhibit LYPLA1 and LYPLA2 in a complex proteomic lysate and to assess anti-target inhibition using a competitive activity-based proteomic profiling (ABPP) assay. In this assay, a complex proteome endogenously expressing LYPLA1/2 was incubated with test compound followed by reaction with a rhodamine-conjugated fluorophosphonate (FP-Rh) serine-hydrolase specific activity-based probe. The reaction products were separated by SDS-PAGE and visualized in-gel using a flatbed fluorescence scanner. The percentage activity remaining was determined by measuring the integrated optical density of the bands. […] Percent inhibition was calculated relative to a DMSO (no compound) control.
(§2) Protocol Summary: Mouse brain membrane proteome (50 μL reaction volume, 1 mg/mL in DPBS) was treated with 0.1-100 μM test compound (1 μL of a 50× stock in DMSO) for 30 minutes at 37° C. FP-Rh (1 μL of 50× stock in DMSO, Thermo #88318) was added to a final concentration of 2 μM. The reactions were incubated for 30 minutes at 25° C., quenched with 16 μL 4×SDS-PAGE loading buffer (reducing), separated by SDS-PAGE and visualized by in-gel fluorescent scanning. The percentage activity remaining was determined by measuring the integrated optical density of the bands relative to a DMSO-only (no compound) control. Assay Cutoff: Compounds with ≥50% inhibition of targets at 1 μM test compound concentration were considered active.

Experiment [3] concerns the target T2, ABHD12 (Mus musculus, UniProt Q99LR1).
T2 construct: from tissue; host or cells: mouse brain, membrane fraction
T2 sequence (Q99LR1 1-398): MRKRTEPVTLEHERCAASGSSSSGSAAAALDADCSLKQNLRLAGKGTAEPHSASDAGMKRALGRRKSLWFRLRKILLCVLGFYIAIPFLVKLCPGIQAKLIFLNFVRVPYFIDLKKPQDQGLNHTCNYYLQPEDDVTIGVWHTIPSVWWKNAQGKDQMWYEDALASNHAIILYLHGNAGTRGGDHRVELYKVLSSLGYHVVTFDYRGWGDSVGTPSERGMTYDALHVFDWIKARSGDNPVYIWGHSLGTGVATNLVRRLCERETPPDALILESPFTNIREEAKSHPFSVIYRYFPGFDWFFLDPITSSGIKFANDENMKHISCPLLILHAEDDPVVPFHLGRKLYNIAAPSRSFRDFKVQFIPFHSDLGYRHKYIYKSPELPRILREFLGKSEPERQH
The description is as above. The following applies: mouse brain (mem) proteome. Here is the method:
as §1, §2

Experiment [4] has as its target T3, PLA2G7 (Mus musculus, UniProt Q60963).
T3 construct: from tissue; host or cells: mouse brain, membrane fraction
T3 sequence (Q60963 22-440): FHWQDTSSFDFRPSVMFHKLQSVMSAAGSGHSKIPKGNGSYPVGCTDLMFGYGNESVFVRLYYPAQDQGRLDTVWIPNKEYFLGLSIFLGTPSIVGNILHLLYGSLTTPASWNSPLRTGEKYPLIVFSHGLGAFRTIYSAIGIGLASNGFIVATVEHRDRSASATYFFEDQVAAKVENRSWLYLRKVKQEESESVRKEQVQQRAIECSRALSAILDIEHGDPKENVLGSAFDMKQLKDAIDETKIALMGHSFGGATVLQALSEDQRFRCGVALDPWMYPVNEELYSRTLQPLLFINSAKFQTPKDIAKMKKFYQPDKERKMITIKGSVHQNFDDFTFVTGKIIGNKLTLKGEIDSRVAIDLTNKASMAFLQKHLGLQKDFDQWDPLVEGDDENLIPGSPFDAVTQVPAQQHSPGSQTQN
The description is as above. The following applies: mouse brain (mem) proteome. As for the experimental part: as §1, §2

The source of these data is patent US9981972B2, “N-hydroxy bicyclic hydantoin carbamates as tools for identification of serine hydrolase targets” (ABIDE THERAPEUTICS, INC., priority 2014, dated 2018).

For `O=C(ON1C(=O)C2CN(C(=O)N3CCOCC3)CCN2C1=O)N1CCC(CCc2ccc(Cl)cc2)CC1` (centres unmarked) [Compound 1, 7-(morpholine-4-carbonyl)-1,3-dioxohexahydroimidazo[1,5-a]pyrazin-2(3H)-yl 4-(4-chloro-phenethyl)piperidine-1-carboxylate], in experiment [1] (LYPLA1/2 quantified together, mouse brain membrane proteome, read-out: mouse LYPLA1/2 collective IC50 in vitro), the IC50 was 154 nM. Besides, the “potency and selectivity for LYPLA1/2, concentration-dependent profiling” value in experiment [1] (mouse brain membrane SHs, FIG. 7B) is “good potency and selectivity”.

As for `O=C(ON1C(=O)[C@@H]2CN(Cc3ccc(Br)cc3)CCN2C1=O)N1CCC(CCc2ccc(Cl)cc2)CC1` [Compound 40, (S)-7-(4-bromobenzyl)-1,3-dioxohexahydroimidazo[1,5-a]pyrazin-2(3H)-yl4-(4-chlorophenethyl)piperidine-1-carboxylate], the “ABHD3 in vitro enzyme activity, % @ 10 μM” value (shortened to “ABHD3 … % @ 10 μM”) in experiment [2] came to 0% @. The “ABHD12 in vitro enzyme activity, % @ 10 μM” value (shortened to “ABHD12 … % @ 10 μM”) in experiment [3] is 0% @. For the same compound, in experiment [4], the “PLA2G7 in vitro enzyme activity, % @ 10 μM” value (“PLA2G7 … % @ 10 μM” below) came to 100% @.

Consider `O=C(ON1C(=O)[C@@H]2CN(C(=O)N3CCOCC3)CCN2C1=O)N1CCN(CCc2ccc(Cl)cc2)CC1` [Compound 41, (S)-7-(morpholine-4-carbonyl)-1,3-dioxo-hexahydroimidazo[1,5-a]pyrazin-2(3H)-yl 4-(4-chlorophenethyl)piperazine-1-carboxylate], for which the “ABHD3 … % @ 10 μM” value in experiment [2] came to 0% @. For the same compound, in experiment [3], the “ABHD12 … % @ 10 μM” value is reported as 0% @. In addition, the “PLA2G7 … % @ 10 μM” value in experiment [4] was determined as 0% @.

For `COc1ccc(N2CCN(C(=O)ON3C(=O)[C@H]4CN(CC5CCN(Cc6ccccc6)CC5)CCN4C3=O)CC2)cc1` [Compound 43, (R)-7-((1-benzylpiperidin-4-yl)methyl)-1,3-dioxo-hexahydroimidazo[1,5-a]pyrazin-2(3H)-yl 4-(4-methoxyphenyl)piperazine-1-carboxylate], the “ABHD3 … % @ 10 μM” value in experiment [2] stood at 0% @. Besides, the “ABHD12 … % @ 10 μM” value in experiment [3] is 0% @. The “PLA2G7 in vitro enzyme activity, % @ 1 μM” value (“PLA2G7 … % @ 1 μM” below) in experiment [4] was 100% @.

In the case of `C#CCOc1ccc(N2CCN(C(=O)ON3C(=O)[C@@H]4CN(Cc5ccc(Oc6ccccc6)cc5)CCN4C3=O)CC2)cc1` [Compound 44, (S)-1,3-dioxo-7-(4-phenoxybenzyl)-hexahydroimidazo[1,5-a]pyrazin-2(3H)-yl 4-(4-(prop-2-ynyloxy)phenyl)piperazine-1-carboxylate], the “ABHD3 … % @ 10 μM” value in experiment [2] is reported as 0% @. Further, the “ABHD12 … % @ 10 μM” value in experiment [3] is on record as 0% @. In experiment [4], the “PLA2G7 … % @ 1 μM” value is given as 100% @.

Turning to `C#CCOc1ccc(N2CCN(C(=O)ON3C(=O)[C@H]4CN(Cc5ccc(Oc6ccccc6)cc5)CCN4C3=O)CC2)cc1` [Compound 45, (R)-1,3-dioxo-7-(4-phenoxybenzyl)-hexahydroimidazo[1,5-a]pyrazin-2(3H)-yl 4-(4-(prop-2-ynyloxy)phenyl)piperazine-1-carboxylate], in experiment [2], the “ABHD3 … % @ 10 μM” value was 75% @. For the same compound, in experiment [3], the “ABHD12 … % @ 10 μM” value is given as 0% @. For the same compound, the “PLA2G7 … % @ 1 μM” value in experiment [4] was found to be 100% @.

For the compound `C#CCOc1ccc(N2CCN(C(=O)ON3C(=O)[C@@H]4CN(CC5CCN(Cc6ccccc6)CC5)CCN4C3=O)CC2)cc1` [Compound 46, (S)-7-((1-benzylpiperidin-4-yl)methyl)-1,3-dioxo-hexahydroimidazo[1,5-a]pyrazin-2(3H)-yl 4-(4-(prop-2-ynyloxy)phenyl)piperazine-1-carboxylate], the “ABHD3 … % @ 10 μM” value in experiment [2] came to 0% @. Also, in experiment [3], the “ABHD12 … % @ 10 μM” value was found to be 0% @. For the same compound, the “PLA2G7 … % @ 1 μM” value in experiment [4] was determined as 100% @.

As for `C#CCOc1ccc(N2CCN(C(=O)ON3C(=O)[C@H]4CN(CC5CCN(Cc6ccccc6)CC5)CCN4C3=O)CC2)cc1` [Compound 47, (R)-7-((1-benzylpiperidin-4-yl)methyl)-1,3-dioxo-hexahydroimidazo[1,5-a]pyrazin-2(3H)-yl 4-(4-(prop-2-ynyloxy)phenyl)piperazine-1-carboxylate], the “ABHD3 … % @ 10 μM” value in experiment [2] is on record as 0% @. Besides, in experiment [3], the “ABHD12 … % @ 10 μM” value was determined as 0% @. Further, in experiment [4], the “PLA2G7 … % @ 1 μM” value was determined as 100% @.

Take `C#Cc1ccc(CCC2CCN(C(=O)ON3C(=O)[C@@H]4CN(C(=O)N5CCOCC5)CCN4C3=O)CC2)cc1` [Compound 48, (S)-7-(morpholine-4-carbonyl)-1,3-dioxo-hexahydroimidazo[1,5-a]pyrazin-2(3H)-yl 4-(4-ethynylphenethyl)piperidine-1-carboxylate]: the “ABHD3 … % @ 10 μM” value in experiment [2] is recorded as 0% @. Further, the “ABHD12 … % @ 10 μM” value in experiment [3] is given as 50% @. Moreover, the “PLA2G7 … % @ 10 μM” value in experiment [4] was found to be 75% @.

`C#Cc1ccc(CCC2CCN(C(=O)ON3C(=O)[C@H]4CN(C(=O)N5CCOCC5)CCN4C3=O)CC2)cc1` [Compound 49, (R)-7-(morpholine-4-carbonyl)-1,3-dioxo-hexahydroimidazo[1,5-a]pyrazin-2(3H)-yl 4-(4-ethynylphenethyl)piperidine-1-carboxylate]: the “ABHD3 … % @ 10 μM” value in experiment [2] is on record as 0% @. In addition, in experiment [3], the “ABHD12 … % @ 10 μM” value was found to be 0% @. In experiment [4], the “PLA2G7 … % @ 10 μM” value is given as 100% @.

Turning to `COc1ccc(N2CCN(C(=O)ON3C(=O)C4CN(CC5CCN(Cc6ccccc6)CC5)CCN4C3=O)CC2)cc1` (centres unmarked) [Compound 52, 7-((1-benzylpiperidin-4-yl)methyl)-1,3-dioxo-hexahydroimidazo[1,5-a]pyrazin-2(3H)-yl 4-(4-methoxyphenyl)piperazine-1-carboxylate], the “ABHD3 … % @ 10 μM” value in experiment [2] was 0% @. In experiment [3], the “ABHD12 … % @ 10 μM” value is 0% @. Besides, in experiment [4], the “PLA2G7 … % @ 1 μM” value was 50% @.

Turning to `C#Cc1ccc(CCC2CCN(C(=O)ON3C(=O)C4CN(C(=O)N5CCOCC5)CCN4C3=O)CC2)cc1` (centres unmarked) [Compound 53, 7-(morpholine-4-carbonyl)-1,3-dioxo-hexahydroimidazo[1,5-a]pyrazin-2(3H)-yl 4-(4-ethynylphenethyl)piperidine-1-carboxylate], the “ABHD3 … % @ 10 μM” value in experiment [2] was found to be 0% @. Also, the “ABHD12 … % @ 10 μM” value in experiment [3] amounted to 50% @. For the same compound, in experiment [4], the “PLA2G7 … % @ 10 μM” value stood at 0% @.
